Reference: patent US20140023611A1 (priority 2010, published 2014)

Columns and labels:
[1] = biological target: T1, rat NaP2b (SLC34A2) (Rattus norvegicus, UniProt Q9JJ09); assay: Inhibition of NaP2b-mediated Pi (33P) uptake in transfected HEK293 cells, rat NaP2b; assay type: cell-based; conditions: 33P Pi uptake, 0.1 mM phosphate, value given as pIC50 range
T1 construct: host or cells: HEK293
T1 sequence (Q9JJ09 1-695): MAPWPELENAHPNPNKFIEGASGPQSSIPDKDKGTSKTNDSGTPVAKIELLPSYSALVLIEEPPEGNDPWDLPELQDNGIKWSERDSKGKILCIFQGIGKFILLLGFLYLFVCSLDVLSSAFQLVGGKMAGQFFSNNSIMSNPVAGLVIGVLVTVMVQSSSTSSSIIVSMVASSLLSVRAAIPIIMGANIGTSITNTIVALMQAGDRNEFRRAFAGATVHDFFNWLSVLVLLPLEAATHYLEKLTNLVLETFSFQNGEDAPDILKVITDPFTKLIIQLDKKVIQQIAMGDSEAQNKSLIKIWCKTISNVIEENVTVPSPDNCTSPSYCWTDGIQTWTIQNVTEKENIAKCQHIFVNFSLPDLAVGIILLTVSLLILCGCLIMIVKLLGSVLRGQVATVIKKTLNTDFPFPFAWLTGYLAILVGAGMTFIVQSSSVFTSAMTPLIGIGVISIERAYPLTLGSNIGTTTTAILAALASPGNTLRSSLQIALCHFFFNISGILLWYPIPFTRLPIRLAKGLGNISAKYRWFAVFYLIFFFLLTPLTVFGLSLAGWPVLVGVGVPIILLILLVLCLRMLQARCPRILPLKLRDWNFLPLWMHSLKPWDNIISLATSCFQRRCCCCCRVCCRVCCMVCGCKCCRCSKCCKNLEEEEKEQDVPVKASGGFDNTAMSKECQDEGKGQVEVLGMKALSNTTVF
How it was run: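 HEK293 cells were transiently transfected with NaP2b cDNA using Lipofectamine and grown near confluence. Compounds were tested at twelve concentrations from 0.1 nM to 30 uM in duplicate, and 33P-phosphate uptake was counted by scintillation after lysis. Results are expressed as pIC50.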

[2] = biological target: T2, human NaP2b (SLC34A2) (Homo sapiens, UniProt O95436); assay: Inhibition of NaP2b-mediated Pi (33P) uptake in transfected HEK293 cells, human NaP2b; assay type: cell-based; conditions: read-out: pIC50 range for human NaP2b (converted)
T2 construct: host or cells: HEK293
T2 sequence (O95436 1-690): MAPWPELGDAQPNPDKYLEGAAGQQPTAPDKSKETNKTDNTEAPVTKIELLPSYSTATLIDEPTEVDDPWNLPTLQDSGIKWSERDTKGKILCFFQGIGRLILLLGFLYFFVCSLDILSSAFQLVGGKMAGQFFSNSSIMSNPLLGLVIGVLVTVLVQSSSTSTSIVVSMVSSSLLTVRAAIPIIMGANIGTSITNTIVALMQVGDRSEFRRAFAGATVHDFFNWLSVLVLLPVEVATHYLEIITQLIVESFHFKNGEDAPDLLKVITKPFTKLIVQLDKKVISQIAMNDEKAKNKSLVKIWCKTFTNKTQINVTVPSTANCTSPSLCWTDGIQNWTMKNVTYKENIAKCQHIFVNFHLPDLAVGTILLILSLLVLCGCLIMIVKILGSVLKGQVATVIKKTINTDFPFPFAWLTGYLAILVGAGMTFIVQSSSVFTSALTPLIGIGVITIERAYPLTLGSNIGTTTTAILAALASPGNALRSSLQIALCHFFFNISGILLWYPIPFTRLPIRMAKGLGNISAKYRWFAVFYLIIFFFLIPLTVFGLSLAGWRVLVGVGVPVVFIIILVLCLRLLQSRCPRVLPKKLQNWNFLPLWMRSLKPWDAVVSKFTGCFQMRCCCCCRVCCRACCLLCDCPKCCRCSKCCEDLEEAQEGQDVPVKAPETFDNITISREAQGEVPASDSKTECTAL
How it was run: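 HEK293 cells transiently transfected with human NaP2b (Thr inserted after residue 37, N39D), endogenous PiT transport pharmacologically silenced. Sodium or choline buffer, pH 7.4, with 100 uM KH2PO4, 33P orthophosphate and compound (0.1 nM–30 uM, twelve concentrations, duplicate). 3-30 min at room temperature, scintillation counting, pIC50 derived.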

[3] = test system: NaPi2b; assay: Competition with phosphate: Pi uptake assay repeated at 2.1 vs 0.1 mM phosphate; assay type: cell-based; conditions: potency at 2.1 vs 0.1 mM phosphate
From the text: For example, a phosphate uptake assay can be performed and the IC50 values for a compound at different phosphate concentrations can be determined (e.g., “Enzyme kinetics”, I. Segel, 1975, John-Wiley & Sons, p. 123). IC50 values for non-competitive inhibitors will remain the same or similar with respect to the phosphate concentration, whereas IC50 values for competitive inhibitors will increase (i.e lose potency) as phosphate concentration increases.
To ascertain if an inhibitor was competitive for binding with phosphate, the procedure was repeated, but raising the concentration of the substrate in the assay mixture from 0.1 to 2.1 mM phosphate.

[4] = biological target: T1, rat NaP2b (SLC34A2); assay: NaP2b-mediated Pi transport (33P uptake) in transfected HEK293 cells, rat NaP2b; assay type: cell-based; conditions: Structure (V) examples, Table 2; rat NaP2b, HEK293; read-out: pIC50 Range (converted)
Experimental: HEK293 cells were obtained from the American Type Culture collection and propagated per their instructions. Expression clones for rat and human NaP2b (SLC34A2) were obtained from Open Biosystems (Catalog numbers MRN1768-9510282, and MHS1010-99823026, respectively). The sequence of the human protein was mutated to insert a threonine after residue 37, and to introduce a N39D mutation.
(§1) The rate of phosphate (Pi) uptake into HEK293 cells was measured using a modification of the method described by Mohrmann et al. (Mohrmann, I., Mohrmann, M., Biber, J., and Murer, H. (1986) Am. J. Phys. 250(3 Pt 1):G323-30.) Transfected HEK293 cells were treated with a pharmacological agent to minimize endogenous PiT-mediated phosphate transport activity, such that the only remaining sodium-dependent phosphate transport activity is that which was bestowed by introduction of the NaP2b genes.
(§2) Cells were seeded into 96-well plates at 25,000 cells/well and cultured overnight. Lipofectamine 2000 (Invitrogen) was used to introduce the NaP2b cDNA, and the cells were allowed to approach confluence during a second overnight incubation. […] Cells were then overlayed with either choline uptake buffer or sodium uptake buffer (14 mM Tris, 137 mM sodium chloride, 5.4 mM KCl, 2.8 mM CaCl2, 1.2 mM MgSO4, 100 uM KH2PO4, PiT-silencing agent, 1 mg/mL Bovine Serum Albumin, pH 7.4) containing 6-9 uCi/mL ^33P orthophosphoric acid (Perkin Elmer) and test compound. Each compound was tested at twelve concentrations ranging from 0.1 nM to 30 uM. Assays were run in duplicate.
After incubation for 3-30 minutes at room temperature, assay mixtures were removed, and the cells were washed twice with ice cold stop solution (137 mM sodium chloride, 14 mM Tris, pH 7.4). Cells were lysed by addition of 20 μL 0.1% Tween 80 followed by 100 μL scintillation fluid, and counted using a TopCount (Perkin Elmer).
pIC50 (the negative log of the IC50) values of the test compounds were calculated using GraphPad Prism.
HEK293 cells were obtained from the American Type Culture collection and propagated per their instructions. Expression clones for rat and mouse NaP2b (SLC34A2) cDNAs were obtained from Open Biosystems (Catalog numbers MRN1768-9510282 and MMM1013-98478398 respectively).
as §1, with “phosphate” for “phosphate (Pi)”
as §2, with “agent, 0.1% wt/v bovine serum albumin,” for “agent, 1 mg/mL Bovine Serum Albumin,”, “Each compounds” for “Each compound”
After incubation for 3-30 minutes at room temperature, assay mixtures were removed, and the cells were washed twice with ice cold stop solution (137 mM sodium chloride, 14 mM Tris, pH 7.4).

[5] = test system: uptake of phosphate from the intestine; assay: In vivo assay: bolus phosphorus (phosphate) challenge; set-up: species or system Sprague-Dawley rats; conditions: Structure (V) examples, Table 4, rat, oral 30 mg/kg
Experimental: By pretreating animals with a low phosphorus diet followed by the subsequent dosing of a phosphorus bolus, serum phosphorus levels were monitored after 30 minutes as a surrogate for intestinal phosphorus absorption. […] The in vivo bolus phosphorus challenge model used here mimics this model in rats.
Male, 7-week-old Sprague-Dawley rats (Charles-River laboratories international, Hollister, Calif.) were allowed to acclimatize for a minimum of 3 days before switching to a synthetic low-phosphorus diet (TD.85010, Harlan Teklad, Madison, Wis.) which contains 0.1% phosphorus and 0.6% calcium. At day 5, testing compounds or vehicle alone (as indicated) were orally administered at the indicated dose in a volume of 5 ml/kg, followed by a bolus gavage of monobasic sodium phosphate (1 mmol in 1 ml) 15 min after compound dosing. Serum was collected via retroorbital bleeding 30 min post phosphate bolus and phosphate levels were determined utilizing an ACE ALERA blood chemistry analyzer (Alfa Wassermann Diagnostic Technologies, West Caldwell, N.J.). […]
Male, 7-week-old Sprague-Dawley rats (Charles-River laboratories international, Hollister, Calif.) were allowed to acclimate for a minimum of 3 days before switching to a synthetic low-phosphorus diet (TD.85010, Harlan Teklad, Madison, Wis.) which contains 0.1% phosphorus and 0.6% calcium. At day 5, testing compounds or vehicle alone (as indicated) were orally administered at the indicated dose in a volume of 5 ml/kg, followed by a bolus gavage of monobasic sodium phosphate (1 mmol in 1 ml) 15 min after compound dosing. Serum was collected via retroorbital bleeding 30 min post phosphate bolus and phosphate levels were determined utilizing an ACE ALERA blood chemistry analyzer (Alfa Wassermann Diagnostic Technologies, West Caldwell, N.J.).
Serum was collected 30 minutes after gavage, and phosphate levels measured. […] The in vivo bolus phosphate challenge model used here mimics this model in rats.
Male, 7-week-old Sprague-Dawley rats (Charles-River laboratories international, Hollister, Calif.) were allowed to acclimatize for a minimum of 3 days before switching to a low-phosphorus diet (TD.85010, Harlan Teklad, Madison, Wis.) which contains 0.1% phosphorus and 0.6% calcium. At day 5, testing compounds or vehicle alone (as indicated) were orally administered at the indicated dose in a volume of 5 ml/kg, followed by a bolus gavage of monobasic sodium phosphate (1 mmol in 1 ml) 15 min after compound dosing. Serum was collected via retroorbital bleeding 30 min post phosphate bolus and serum phosphate levels were determined utilizing an ACE ALERA blood chemistry analyzer (Alfa Wassermann Diagnostic Technologies, West Caldwell, N.J.).
The representative data on effects of test compounds on serum phosphate levels are shown in Table 4 (data are expressed as mean±SD, with 6 animals per data point). The differences between groups were evaluated by one-way analysis of variance with Dunnett's post hoc tests.

SMILES | IC50 [1] [nM] | IC50 [2] [nM] | Competitive with respect to Pi? [3] | IC50 [4] [nM] | % Decrease in serum [Pi] [5] [%] | Serum increase [Pi] mg/dL from baseline low PI state ([5]; mean ± SD, vehicle 5.0 ± 1.3) [mg/dL]
O=C(O)CCOCCOCCOCCNC(=O)c1cccc(SCc2cccc(C(=O)Nc3ccc(N4CCCCC4)cc3-c3cc(C(=O)NCc4cccc(C(F)(F)F)c4)ccn3)c2)c1 [Example 10.1, 1-oxo-1-(3-(3-(4-(piperidin-1-yl)-2-(4-(3-(trifluoromethyl)benzyl-carbamoyl)pyridin-2-yl)phenylcarbamoyl)benzylthio)phenyl)-5,8,11-trioxa-2-azatetradecan-14-oic acid] | 1000 to 7940 | < 1000 | No |  |  | 
O=C(O)c1cccc(S(=O)(=O)Cc2cccc(C(=O)Nc3ccc(N4CCCCC4)cc3-c3cc(C(=O)NCc4cccc(C(F)(F)F)c4)ccn3)c2)c1 [Example 8.26, 3-((3-((4-(Piperidin-1-yl)-2-(4-((3-(trifluoromethyl)benzyl)carbamoyl)pyridin-2-yl)phenyl)carbamoyl)benzyl)sulfonyl)benzoic acid] | 10000 to 31600 |  | No |  |  | 
O=C(O)Cc1cccc(SCc2cccc(C(=O)Nc3ccc(N4CCCCC4)cc3-c3cc(C(=O)NCc4cccc(C(F)(F)F)c4)ccn3)c2)c1 [Example 8.18] | < 1000 |  | No |  |  | 
O=C(Nc1ccc(N2CCCCC2)cc1C(=O)N/N=C/c1ccc(Cl)c(C(F)(F)F)c1)c1cccc(Cn2cnc(CCO)c2)c1 [Ex. 47, (E)-N-(2-(2-(4-chloro-3-(trifluoromethyl)benzylidene)hydrazinecarbonyl)-4-(piperidin-1-yl)phenyl)-3-((4-(2-hydroxyethyl)-1H-imidazol-1-yl)methyl)benzamide] |  |  |  | 100 to 794 | 28 | 3.6 ± 1.1
